What was measured:
[1] = Solubility in water (description of test compound); assay type: physicochemical
NMDA receptor = assay: Whole-cell NMDAR current (NMDAR-EPSC) recording in hippocampal CA1 pyramidal cells of brain slices; assay type: cell-based, mice; conditions: hippocampal CA1 pyramidal cells at +40 mV, last 10 min of 20 min
Procedure: Male C57BL/6 mice, aged 3-9 weeks, were purchased from Beijing Vital River Laboratory Animal Technology Co., Ltd. (Beijing, China). The animals were bred at 23 ±1° C. The room temperature was controlled at 22-24° C. with humidity at 40-70% and 12-hour light/dark cycle (7:00 am/19:00 pm).
A. The baseline whole-cell NMDAR current was recorded in 10 minutes before the compound of formula 1 (0.76, 3.8 mM/L) was dissolved in artificial cerebrospinal fluid (vehicle) and added with the brain slice circulation fluid.
B. An identical volume of artificial cerebrospinal fluid (vehicle) was added with the brain slice circulation fluid.
Treatment: The brain slice circulation fluid was directly added.
Time of treatment: 10 minutes after baseline recording.
Test item: depolarization voltage-induced whole-cell NMDAR receptor currents.
Hippocampal brain slices: The animals were anesthetized with isoflurane and the brains were collected quickly. […]
Whole-cell NMDAR current recording: NMDAR whole cell EPSC recording was performed in hippocampal CA1 pyramidal cells. […] The electrical signal in whole cells was recorded using a Clampfit 10.3 software (Axon Instruments) equipped with an Axopatch-700B amplifier (Axon Instruments, Foster City, Calif.) and a Digiclata 1440A digital-to-analog converter, with filtering set at 2.8 kHz and sampling at 10 kHz. […]

[2] = system: KM mice (tail suspension model of behavioral despair); assay: Tail suspension test after single intraperitoneal injection; assay type: in vivo; conditions: tail suspension test 0.5 h after administration, last 4 min, mean ± SEM
Procedure: (§1) The experimental animals were male SPF grade KM mice purchased from Kunming Medical University, weighed 21-24 g, certificate no. SCXK(Dian)K2015-0002. The experimental animals were bred in individually ventilated cages (IVCs) in animal room in Dianqing Biotechnology, Ltd., Yunnan (facility no. 13-11-078 and 13-11-079; manufacture date: Nov. 24, 2013). The room temperature was controlled at 22-24° C. with humidity at 40-70% and 12-hour light/dark cycle (7:00 am/19:00 pm). The cages and padding were changed twice a week. The raising method was group raising and there were 10 mice accommodated in each cage. The feed was sterilized feed from Jiangsu Xietong Medical Bioengineering, Ltd., certificate no.: (2014)01008. Feed was supplied once daily with free access. Tap water was supplied in boxes with free access.
A. Behavioral testing was performed in different treatment groups (1.0 mg/kg, 5.0 mg/kg, 10.0 mg/kg, 20.0 mg/kg) 0.5 h after intraperitoneal (i.p.) injection of the compound of formula 1;
B. In the control group receiving normal saline (NS), the behavioral testing was conducted at the same time;
C. In the control group receiving imipramine (IMI; 15 mg/kg), the behavioral testing was conducted at the same time;
Route of administration: The test compound of formula 1, normal saline or imipramine was administered by intraperitoneal injection according to the experimental design.
Time of administration: The animals were accommodated to the experimental environment for 1 hour, administrated by intraperitoneal injection and subjected to tail suspension test 0.5 hour after the administration.
Test criterion: The mice were subjected to a 6-minute tail suspension test, and the cumulative time of immobility in the first 2 minutes and the last 4 minutes was recorded. The criterion for immobility was that the mouse stops struggling and remains steady.
(§2) A depression model of behavioral despair, ie. tail suspension model, was used. Animals were accommodated to the company's breeding environment for 1 day. During the adaptation, animals with non-smooth and unclean hair, high alertness or aggressivity were excluded.
(§3) Animals were accommodated to the experimental environment for 1 hour, weighed, and randomized according to the body weight into a normal saline control group, an imipramine control group and treatment groups with different doses.
(§4) In the tail suspension test, animals in all groups for tail suspension test were administered with corresponding drugs by a single intraperitoneal injection. 0.5 h after the administration, tails of mice were fixed with medical tape at about 1-2 cm from the end, such that the mice were hanged in the tail suspension box with the heads about 10 cm above the bottom of the box. The observation started immediately after hanging. In the 6-minute observation, the cumulative time of immobility in the first 2 minutes and the last 4 minutes was recorded. A video was recorded with obviously contrasted background with the hair color of the mice, for example, black background was used for white mice.
(§5) The cumulative time of immobility within the last 4 minutes was compared between the test compound groups and the normal saline group using SPSS 11.0 software. One-way analysis of variance (ANOVA) was used for comparison among multiple groups, and independent sample T test was performed for comparisons in pairs. P <0.05 indicates a statistically significant difference. All statistical diagrams were plotted in mean ±SEM using Origin 8.0 software.

[3] = system: KM mice (tail suspension model of behavioral despair); assay: Tail suspension test after single intragastric (oral) administration; assay type: in vivo; conditions: tail suspension test 1 h after administration, last 4 min, mean ± SEM
Procedure: as §1, with “with free access . Tap water” for “with free access. Tap water”
A. Behavioral testing was performed in different treatment groups (1.0 mg/kg, 5.0 mg/kg, 10.0 mg/kg, 15.0 mg/kg, 30.0 mg/kg) 1 h after intragastric (i.g.) administration of the compound of formula 1;
B. In the negative control group receiving normal saline (NS), the behavioral testing was conducted at the same time;
C. In the positive control group receiving imipramine (IMI; 15 mg/kg), the behavioral testing was conducted at the same time;
Route of administration: The test compound of formula 1, normal saline or imipramine was administered by intragatric administration according to the experimental design.
Time of administration: The animals were accommodated to the experimental environment for 1 hour, administrated by intragatric administration, and subjected to tail suspension test 1 hour after the administration.
Test criterion: The mice were subjected to a 6-minute tail suspension test, and the cumulative time of immobility in the first 2 minutes and the last 4 minutes was recorded. The criterion for immobility is that the mouse stops struggling and remains steady.
as §2, §3
as §4, with “groups” for “groups for tail suspension test”, “intragastric administration. 1” for “intraperitoneal injection. 0.5”
as §5

Structure (SMILES) | Solubility in water [1] | NMDAR current (% of Baseline) (NMDA receptor; 0.76 mM/L in circulating artificial cerebrospinal fluid) | NMDAR current (% of Baseline) (NMDA receptor; 3.8 mM/L in circulating artificial cerebrospinal fluid) | Time of immobility (% of NS) ([2]; 1 mg/kg i.p.) | Time of immobility (% of NS) ([2]; 5 mg/kg i.p.) | Time of immobility (% of NS) ([2]; 10 mg/kg i.p.) | Time of immobility (% of NS) ([2]; 20 mg/kg i.p.) | Time of immobility (% of NS) ([3]; 1 mg/kg i.g.) | Time of immobility (% of NS) ([3]; 5 mg/kg i.g.) | Time of immobility (% of NS) ([3]; 10 mg/kg i.g.) | Time of immobility (% of NS) ([3]; 15 mg/kg i.g.) | Time of immobility (% of NS) ([3]; 30 mg/kg i.g.) | Time of immobility (% of NS) ([2]; 15 mg/kg i.p.)
Cc1ccc(O[C@@H]2OC(CO)[C@@H](O)[C@H](O)C2O)cc1O[C@@H]1OC(CO)[C@@H](O)[C@H](O)C1O (some centres unmarked) [Compounds of formula 1] | easily soluble in water | 108.80 ± 5.86 % of Baseline | 155.53 ± 20.85 % of Baseline | 104.02 ± 16.80 % of NS | 72.12 ± 8.57 % of NS | 60.44 ± 7.53 % of NS | 104.66 ± 14.75 % of NS | 87.14 ± 11.27 % of NS | 72.67 ± 7.89 % of NS | 66.86 ± 8.80 % of NS | 68.33 ± 7.17 % of NS | 77.38 ± 6.00 % of NS | –
CN(C)CCCN1c2ccccc2CCc2ccccc21 [IMI, imipramine, reference compound] | – | – | – | – | – | – | – | – | – | – | 58.64 ± 5.42 % of NS | – | 58.12 ± 5.66 % of NS

From US20220048939A1, “AROMATIC RING COMPOUND” (HAIKOU KAIBAO INDUSTRIAL CO., LTD, priority 2019, published 2022)
